Results reported in patent US4221919A, “Antiinflammatory substituted phenylacetic acids” (SPOFA, United Pharmaceutical Works, priority 1974, dated 1980).
Read-outs that look alike come from different tables or passages of the source.

Assays:
[1] = test system: kaolin-induced edema of rat hind limb; assay: kaolin-induced edema of rat hind limb (antiinflammatory activity, gavage); type: in vivo, rat (Wistar strain, Konarovice breed, female); details: po, 1 h, by gavage, once, one hour before kaolin injection, vs untreated control group, footnotes mark + statistically significant, n not statistically significant
Method: (§1) As experimental models of inflammation, serving for testing the antiinflammatory activity, there were used the method of kaolin-induced edema of rat hind limb (Hillebrecht J.: Arzneim-Forsch. 9, p. 625, 1959). Kaolin edema of rat hind limb was induced by subplantar injection of 10% kaolin suspension dosed 0.1 ml per animal. The substances tested were administered once, one hour before the injection of kaolin, by gavage with the aid of a metallic gastric sound in the form of aqueous suspension with gum acacia added, in volumes of 1 ml/100 g body weight, equivalent to doses of 25 and 100 mg/kg. The edema of the right hind limb was measured volumetrically on a Volumometer Ugo Basile at hours 1; 1.5; 3; 4.5 and 6 after injection of kaolin. Statistical evaluation was always made in comparison with an untreated control group, and the efficacy of each compound was expressed in percent inhibition of inflammation. Experimental animals: female rats, Wistar strain, Konarovice breed, weighing 130-150 g, experimental groups of 6 animals each. Pelleted diet and drinking water were served ad libitum. This phase of limb edema induced by injection of kaolin suspension represents an acute phase of inflammatory reaction. In addition, orientative tests for oral acute toxicity were carried out with the compounds tested in female mice, S strain, Konarovice breed, weighing 16-20 g. Each compound was administered once by gavage, dosed 1 g/kg, in the form of aqueous suspensions with gum acacia added. Experimental groups of 5 animals each were employed. The deaths were checked for 1 week after administration.

[2] = orientative test for oral acute toxicity in female mice; details: mouse, in vivo
Method: as §1

[3] = oral (gavage), single dose 1 g/kg, deaths checked for 1 week, read-out: LD50 oral mice

Row | Compound | inhibition in vivo at 25 mg/kg [1] [%] | LD50 at 168 h [2, 3] [mg/kg] | LD50 at 168 h ([2]; po) [mg/kg]
1 | COc1ccc(COc2ccc(CC(=O)O)cc2Cl)cc1Cl [3-chloro-4-(3'-chloro-4'-methoxybenzyloxy) phenylacetic acid] | 17 | > 1000 | 
2 | CC(C)Oc1ccc(COc2ccc(CC(=O)O)cc2Cl)cc1 [3-chloro-4-(4'-isopropoxybenzyloxy) phenylacetic acid] |  | < 1000 | 
3 | CC(C(=O)O)c1ccc(OCc2ccc(Cl)cc2)c(Cl)c1 (stereo not drawn) [α-[3-Chloro-4-(4'-chlorobenzyloxy)-phenyl] propionic acid, reference compound] | 25 |  | > 1000
4 | O=C(O)Cc1ccc(OCc2ccc(Cl)cc2)c(Cl)c1 [3-Chloro-4-(4'-chlorobenzyloxy) phenylacetic acid] | 28 | > 1000 | 
5 | COc1ccc(COc2ccc(C(C)C(=O)O)cc2Cl)cc1Cl (stereo not drawn) [α-[3-Chloro-4-(3'-chloro-4'-methoxybenzyloxy)phenyl] propionic acid, reference compound] |  | < 1000 | 
6 | O=C(O)Cc1ccc(OCc2ccccc2)c(Cl)c1 [3-Chloro-4-benzyloxyphenylacetic acid, 3-chloro-4-benzyloxyphenylacetic acid] | 39 | > 1000 | 
7 | CC(C)Oc1ccc(COc2ccc(C(C)C(=O)O)cc2Cl)cc1 (stereo not drawn) [α-[3-Chloro-4-(4'-isopropoxybenzyloxy)phenyl] propionic acid, reference compound] |  | < 1000 | 
8 | CC(C(=O)O)c1ccc(OCc2ccccc2)c(Cl)c1 (stereo not drawn) [α-(3-Chloro-4-benzyloxyphenyl)-propionic acid, reference compound] | 14 | 1000 | 
